Experimental findings from US8440694B2, “Quinoline compounds suitable for treating disorders that respond to modulation of the serotonin-5-HT6 receptor” (Abbott GmbH & Co. KG, priority 2007, dated 2013) are described below.

Where a name gives a salt, the structure may show the parent alone.

This assay deals with T1, h-5-HT6 receptor (Homo sapiens, UniProt P50406).
T1 construct: expressed in transfected cells
T1 sequence (P50406 whole entry): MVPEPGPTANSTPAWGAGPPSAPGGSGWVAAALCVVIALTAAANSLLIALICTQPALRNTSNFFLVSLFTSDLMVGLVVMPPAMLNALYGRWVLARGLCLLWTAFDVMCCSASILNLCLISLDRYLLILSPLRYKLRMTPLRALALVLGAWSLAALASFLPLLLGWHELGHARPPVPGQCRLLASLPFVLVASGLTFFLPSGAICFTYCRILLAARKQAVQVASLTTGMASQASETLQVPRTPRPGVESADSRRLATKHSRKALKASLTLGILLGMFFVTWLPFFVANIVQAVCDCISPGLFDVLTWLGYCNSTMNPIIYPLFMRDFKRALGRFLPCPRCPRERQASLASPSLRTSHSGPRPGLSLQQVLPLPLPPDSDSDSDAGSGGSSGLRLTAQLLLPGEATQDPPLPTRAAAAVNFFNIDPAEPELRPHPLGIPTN
Put plainly: 5-HT6 receptor binding assay (displacement of [3H]-LSD). Particulars: membranes of HEK293 cells stably expressing h-5-HT6 receptor, [3H]-LSD displacement. The protocol: Displacement of Radioligands Binding to the Following Cloned Human Receptors
Cells from stable clonal cell lines expressing the corresponding receptor (5-HT6, α1-adrenergic, dopamine D2 or histamine H1 receptors) were washed with PBS (w/o Ca^++, Mg^++) and harvested in PBS with 0.02% EDTA. The cells were collected by centrifugation at 500 g for 10 min. at 4° C., washed with PBS and centrifuged (500 g, 10 min. 4° C.). The pellets were stored at −80° C. until use. For membrane preparation, the thawed cell pellet was resuspended in ice-cold sucrose buffer (0.25 M sucrose, 10 mM Hepes (pH 7.4), 1 mM Phenylmethylsulfonyl fluoride (PMSF) in DMSO, 5 μg/ml Pepstatin-A, 3 mM EDTA, 0.025% Bacitracin) and homogenized with a Branson Sonifier W-250 (Settings: Timer 4; Output Control 3; Duty Cycle constant; 2 to 3 cycles). Cell disruption was checked with the aid of a microscope. Remaining unbroken cells were pelleted at 1.000 g for 10 min. at 4° C. The sucrose buffer supernatant was then centrifuged at 60.000 g for 1 h at 4° C. (Beckman Ultrazentrifuge XL 80). The pellet was resuspended in 30 ml ice-cold Tris buffer (20 mM TRIS (pH 7.4), 5 μg/ml Pepstatin A, 0.1 mM PMSF, 3 mM EDTA) by pipetting through a 10 ml serological pipet and centrifuged for 1 h at 4° C. at 60.000 g. A final resuspension was performed in a small volume of ice-cold Tris buffer (see above) by pressing through a serological pipet followed by ultrasonic treatment with a Branson Sonifier W-250 (Settings: Timer 1; Output Control 3; Duty Cycle constant; 1 cycle). Protein concentration was determined (BCA-Kit; Pierce) and aliquots stored at −80° C. or in liquid nitrogen for long-term storage.
All receptor binding experiments were carried out in the corresponding assay buffer in a total volume of 200 μl in the presence of various concentrations of test compound (10^−5 M to 10^−9 M, tenfold serial dilution, duplicate determinations). The assays were terminated by filtration on polyethylenimine (PEI 0.1% or 0.3%) presoaked Packard Unifilter Plates (GF/C or GF/B) with a Tomtec MachIII U 96well-plate harvester. After the plates had been dried for 2 h at 55° C. in a drying chamber scintillation cocktail (BetaPlate Scint; PerkinElmer) was added. Radioactivity was measured in a Microbeta Trilux two hours after the addition of the scintillation mixture. Data derived from liquid scintillation counting were analysed by iterative non-linear regression analysis with the use of the Statistical Analysis System (SAS): a program similar to “LIGAND” as described by Munson and Rodbard (Analytical Biochemistry 107, 220-239 (1980).
HEK293 cells stably expressing the h-5-HT6 receptor (NCBI Reference Sequence XM 001435) were cultured in RPMI1640 medium supplemented with 25 mM HEPES, 10% fetal calf serum and 1-2 mM glutamine. The membrane preparation was performed as described in section 1. […] Non-specific binding was defined with 1 μM methiothepin. The binding reaction was carried out for 3.5 h at room temperature. During the incubation, the plates were shaken on a plate shaker at 100 rpm and terminated by filtration on Packard Unifilter GF/C (0.1% PEI) plates, followed by 2 wash cycles with ice-cold 50 mM Tris-HCl, 5 mM CaCl2.
Data derived from liquid scintillation counting were analyzed by iterative non-linear regression analysis with the use of the Statistical Analysis System (SAS): a program similar to “LIGAND” as described by Munson and Rodbard (Anal. Biochem. 1980, 107, 220-239). Fitting was performed according to formulae described by Feldman (Anal. Biochem. 1972, 48, 317-338). IC50, nH and Ki values were expressed as geometrical mean.
For orientation: Ki means the dissociation constant of the complex between target and ligand, obtained from inhibition or displacement. As for `O=S(=O)(c1cccc(OC(F)(F)F)c1)c1cnc2c(N3CC4CNCC4C3)cccc2c1` (stereo not drawn) [Example 16, 8-(hexahydropyrrolo[3,4-c]pyrrol-2(1H)-yl)-3-(3-(trifluoromethoxy)-phenylsulfonyl)quinoline], the Ki is under 10 nM.

As to `CC(C)(C)OC(=O)N1CCC2CN(c3cccc4cc(S(=O)(=O)c5ccccc5)cnc34)CC2C1` (stereo not drawn) [Example 3, tert-butyl 2-(3-(phenylsulfonyl)quinolin-8-yl)hexahydro-1H-pyrrolo[3,4-c]pyridine-5(6H)-carboxylate], the Ki is under 250 nM.

The molecule `O=S(=O)(c1ccccc1)c1cnc2c(N3CC4CN(Cc5ccccc5)CC4C3)cccc2c1` (stereo not drawn) [Example 40, 8-(5-benzylhexahydropyrrolo[3,4-c]pyrrol-2(1H)-yl)-3-(phenylsulfonyl)-quinoline] registered a Ki of under 10 nM.

Consider `O=S(=O)(c1ccccc1)c1cnc2c(N3CCC4NC5CCCCC5C4C3)cccc2c1` (stereo not drawn) [Example 42, 2-(3-(phenylsulfonyl)quinolin-8-yl)dodecahydro-1H-pyrido[4,3-b]indole], for which the Ki was under 250 nM.

As for `O=S(=O)(c1ccccc1)c1cnc2c(N3CC4CCNC4C3)cccc2c1` (stereo not drawn) [Example 1, 8-(Hexahydropyrrolo[3,4-b]pyrrol-5(1H)-yl)-3-(phenylsulfonyl)quinoline hydrochloride], the Ki was under 10 nM.

Take `O=S(=O)(c1cccc(OC(F)(F)F)c1)c1cnc2c(N3CC4CCNCC4C3)cccc2c1` (stereo not drawn) [Example 20, 8-(1H-pyrrolo[3,4-c]pyridin-2(3H,3aH,4H,5H,6H,7H,7aH)-yl)-3-(3-(trifluoromethoxy)phenylsulfonyl)quinoline]: the Ki was under 10 nM.

The molecule `O=S(=O)(c1ccc(F)cc1)c1cnc2c(N3CC4CNCC4C3)cccc2c1` (stereo not drawn) [Example 14, 3-(4-fluorophenylsulfonyl)-8-(hexahydropyrrolo[3,4-c]pyrrol-2(1H)-yl)quinoline] came in with a Ki of under 10 nM.

With `O=S(=O)(c1cccc(F)c1)c1cnc2c(N3C[C@H]4CNC[C@H]4C3)cccc2c1` [Example 30, 3-(3-Fluoro-benzenesulfonyl)-8-(3aR,6aS)-hexahydro-pyrrolo[3,4-c]pyrrol-2-yl-quinoline hydrochloride], the Ki was under 10 nM.

`O=S(=O)(c1cccc(C(F)(F)F)c1)c1cnc2c(N3C[C@H]4CNC[C@H]4C3)cccc2c1` [Example 24, 8-((3aR,6aS)-hexahydropyrrolo[3,4-c]pyrrol-2(1H)-yl)-3-(3-(trifluoromethyl)phenylsulfonyl)quinoline]: the Ki was under 10 nM.

For the molecule `O=C(OCc1ccccc1)N1CC2CN(c3cccc4cc(S(=O)(=O)c5ccccc5)cnc34)C2C1` (stereo not drawn) [Example 2, Benzyl 6-(3-(phenylsulfonyl)quinolin-8-yl)-3,6-diazabicyclo[3.2.0]heptane-3-carboxylate], the Ki is under 250 nM.

Consider `O=S(=O)(c1cccc(C(F)(F)F)c1)c1cnc2c(N3CC4CCNC4C3)cccc2c1` (stereo not drawn) [Example 22, 8-(hexahydropyrrolo[3,4-b]pyrrol-5(1H)-yl)-3-(3-(trifluoromethyl)-phenylsulfonyl)quinoline], for which the Ki was under 10 nM.

`O=S(=O)(c1cccc(F)c1)c1cnc2c(N3C[C@@H]4CN[C@@H]4C3)cccc2c1` [Example 32, (1S,5S)-3-(3-(3-fluorophenylsulfonyl)quinolin-8-yl)-3-aza-6-azoniabicyclo[3.2.0]heptane hydrochloride] had a Ki of under 10 nM.

Take `CN1CCC2CN(c3cccc4cc(S(=O)(=O)c5ccccc5)cnc34)CC2C1` (stereo not drawn) [Example 41, 8-(5-methyl-1H-pyrrolo[3,4-c]pyridin-2(3H,3aH,4H,5H,6H,7H,7aH)-yl)-3]: the Ki is under 50 nM.

The molecule `O=S(=O)(c1ccccc1)c1cnc2c(N3CC4CCNCC4C3)cccc2c1` (stereo not drawn) [Example 4, 3-(Phenylsulfonyl)-8-(1H-pyrrolo[3,4-c]pyridin-2(3H,3aH,4H,5H,6H,-7H,7aH)-yl)quinoline] registered a Ki of under 10 nM.

Molecule `O=S(=O)(c1ccc(F)cc1)c1cnc2c(N3CC4CCNCC4C3)cccc2c1` (stereo not drawn) [Example 13, 3-(4-fluorophenylsulfonyl)-8-(1H-pyrrolo[3,4-c]pyridin-2(3H,3aH,4H,5H,6H,7H,7aH)-yl)quinoline] gave an inhibition constant Ki of under 10 nM.

As to `O=S(=O)(c1ccccc1)c1cnc2c(N3CC[C@H]4CNC[C@H]43)cccc2c1` [Example 12, 8-((3aS,6aS)-hexahydropyrrolo[3,4-b]pyrrol-1(2H)-yl)-3-(phenylsulfonyl)-quinoline], the inhibition constant Ki was under 10 nM.

In the case of `O=S(=O)(c1ccccc1)c1cnc2c(N3CC4CNCC4C3)cccc2c1` (stereo not drawn) [Example 43, 8-(hexahydropyrrolo[3,4-c]pyrrol-2(1H)-yl)-3-(phenylsulfonyl)quinoline], the Ki was under 10 nM.

`O=S(=O)(c1cccc(C(F)(F)F)c1)c1cnc2c(N3CC4CCNCC4C3)cccc2c1` (stereo not drawn) [Example 44, 8-(1H-pyrrolo[3,4-c]pyridin-2(3H,3aH,4H,5H,6H,7H,7aH)-yl)-3-(3-(trifluoromethyl)phenylsulfonyl)quinoline] gave a Ki of under 10 nM.

For the molecule `O=S(=O)(c1cccc(F)c1)c1cnc2c(N3C[C@H]4CN[C@H]4C3)cccc2c1` [Example 28, 8-(1R,5R)-3,6-Diaza-bicyclo[3.2.0]hept-3-yl-3-(3-fluoro-benzenesulfonyl)-quinoline hydrochloride], the Ki is under 10 nM.

For `O=S(=O)(c1cccc(F)c1)c1cnc2c(N3CC4CCNC4C3)cccc2c1` (stereo not drawn) [Example 29, 3-(3-Fluoro-benzenesulfonyl)-8-(hexahydro-pyrrolo[3,4-b]pyrrol-5-yl)-quinoline hydrochloride], the Ki is under 10 nM.

As to `O=S(=O)(c1ccc(F)cc1)c1cnc2c(N3CC4CCNC4C3)cccc2c1` (stereo not drawn) [Example 39, 3-(4-fluorophenylsulfonyl)-8-(hexahydropyrrolo[3,4-b]pyrrol-5(1H)-yl)quinoline], the Ki was under 10 nM.

On to `CC(C)(C)OC(=O)N1CCC2CN(c3cccc4cc(S(=O)(=O)c5cccc(OC(F)(F)F)c5)cnc34)CC2C1` (stereo not drawn) [Example 19, tert-butyl 2-(3-(3-(trifluoromethoxy)phenylsulfonyl)quinolin-8-yl)hexahydro-1H-pyrrolo[3,4-c]pyridine-5(6H)-carboxylate], for which the Ki is under 50 nM.

`O=S(=O)(c1cccc(F)c1)c1cnc2c(N3CC4CCCNC4C3)cccc2c1` (stereo not drawn) [Example 31, 6-(3-(3-fluorophenylsulfonyl)quinolin-8-yl)octahydro-1H-pyrrolo[3,4-b]pyridin-1-ium chloride] gave a Ki of under 10 nM.

In turn, `CC(C)(C)OC(=O)N1CC2CN(c3cccc4cc(S(=O)(=O)c5cccc(OC(F)(F)F)c5)cnc34)CC2C1` (stereo not drawn) [Example 15, tert-butyl 5-(3-(3-(trifluoromethoxy)phenylsulfonyl)quinolin-8-yl)hexahydropyrrolo[3,4-c]pyrrole-2 (1H)-carboxylate] yielded a Ki of under 50 nM.

`O=S(=O)(c1cccc(F)c1)c1cnc2c(N3CC[C@H]4CNC[C@H]43)cccc2c1` [Example 26, 3-(3-Fluoro-benzenesulfonyl)-8-(3aS,6aS)-hexahydropyrrolo[3,4-b]pyrrol-1-yl-quinoline hydrochloride] registered a Ki of under 10 nM.

The molecule `O=S(=O)(c1cccc(N2CC3CNCC3C2)c1)c1cnc2c(N3CC4CNCC4C3)cccc2c1` (stereo not drawn) [Example 18, 8-(hexahydropyrrolo[3,4-c]pyrrol-2(1H)-yl)-3-(3-(hexahydropyrrolo[3,4-c]pyrrol-2(1H)-yl)phenylsulfonyl)quinoline] registered a Ki of under 10 nM.

For `O=S(=O)(c1ccccc1)c1cnc2c(N3CCCC4NCCCC43)cccc2c1` (stereo not drawn) [Example 10, 1-(3-(phenylsulfonyl)quinolin-8-yl)decahydro-1,5-naphthyridine], the Ki is under 250 nM.
